Test results from patent US9676771B2, “Compounds for inhibiting drug-resistant strains of HIV-1 integrase” (priority 2013, dated 2017).
Read-outs that look alike come from different tables or passages of the source.

How the values were obtained:
[1] = in vitro; format: cell-based, human; conditions: human, 50% reduction in the level of ATP in HOS cells
Procedure, shortened: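 Cells exposed to compounds over a concentration range for 48 hrs at 37° C. Viability read as cellular ATP by luciferase (ATPlite) luminescence after lysis, normalised to untreated cells; CC50 derived by regression fit.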

[2] = system: HIV-1 constructs containing mutant IN T66I; assay: Single-round HIV-1 infectivity assay, IN mutant T66I; format: cell-based; conditions: Human immunodeficiency virus 1; Table 8; read-out: EC50 (nM, IN mutants) T66I
Method: (§1) Single-Round HIV-1 Infectivity Assay.
(§2) Human embryonyl kidney cell culture cell line 293 was acquired from the American type Culture Collection (ATCC).
(§3) […]. […] The virus-containing supernatants were then harvested, clarified by low-speed centrifugation, filtrated, and diluted for preparation in infection assays. […] After compound incorporation and activation in the cell, 100 μL of virus-stock diluted to achieve a maximum luciferase signal between 0.2 and 1.5 RLUs was added to each well and further incubated at 37° C. for 48 hrs. […] Activity was normalized to infectivity in the absence of target compounds. KaleidaGraph (Synergy Software, Reading, Pa.) was used to perform regression analysis on the data. EC50 values were determined from the fit model.
(§4) pNLNgoMIVR^−ΔEnv.LUC has been described previously (Zhao et al. 2008). The integrase codon reading frame was removed from pNLNgoMIVR^−ΔEnv LUC (between KpnI and SalI sites) and placed between the KpnI and SalI sites of pBluescript II KS+. Using that construct as the wild-type template, we prepared the following HIV-1 Integrase-resistant mutants via the QuikChange II XL (Stratagene, La Jolla, Calif.) site-directed mutagenesis protocol: H51Y, T66I, E92Q, G118R, Y143R, Q148H, Q148K, N155H, R263K, G140S+Q148H, G140A+Q148K, E138K+Q148K, and H51Y+R263K. The following sense with cognate antisense (not shown) oligonucleotides (Integrated DNA Technologies, Coralville, Iowa) were used in the mutagenesis: H51Y, 5′-[…]-3; T66I, 5′-[…]-3′; E92Q, 5′-[…]-3′; G118R, 5′-[…]-3′; E138K, 5′-[…]-3; G140A, 5′-[…]-3; G140S, 5′-[…]-3′; Y143R, 5′-[…]-3′; Q148H, 5′-[…]-3′; Q148K, 5′-[…]-3; N155H, 5′-[…]-3′; R263K 5′-[…]-3′. The double mutation G140S+Q148H was constructed by using the previously generated Q148H mutant and the appropriate oligonucleotide for the 2nd mutation, G140S. The double mutation G140A+Q148K was made by using the Q148K mutant and the appropriate oligonucleotide for the 2nd mutation, G140A. The double mutation E138K+Q148K was made by using the Q148K mutant and the appropriate oligonucleotide for the 2nd mutation, E138K. The double mutation H51Y+R263K was constructed by using the previously generated H51Y mutant and the appropriate oligonucleotides for the 2nd mutation, R263K. The DNA sequence of each construct was verified independently by DNA sequence determination. The mutant integrase coding sequences from pBluescript II KS+ were then subcloned into pNLNgoMIVR^−ΔEnv LUC (between the KpnI and SalI sites) to produce the full-length mutant HIV-1 Integrase constructs. These DNA sequences were additionally checked independently by DNA sequence determination.

[3] = system: HIV-1 constructs containing mutant IN E92Q; assay: Single-round HIV-1 infectivity assay, IN mutant E92Q; format: cell-based; conditions: Human immunodeficiency virus 1; Table 8; read-out: EC50 (nM, IN mutants) E92Q
Method: as §1, §2, §3, §4

[4] = system: HIV-1 constructs containing mutant IN H51Y; assay: Single-round HIV-1 infectivity assay, IN mutant H51Y; format: cell-based; conditions: Human immunodeficiency virus 1; Table 8; read-out: EC50 (nM, IN mutants) H51Y
Method: as §1, §2, §3, §4

[5] = system: HIV-1 constructs containing mutant IN H51Y/R263K; assay: Single-round HIV-1 infectivity assay, IN double mutant H51Y/R263K; format: cell-based; conditions: Human immunodeficiency virus 1; Table 8; read-out: EC50 (nM, IN mutants) H51Y/R263K
Method: as §1, §2, §3, §4

[6] = system: HIV-1 WT IN; assay: High growth serum assays in cells (WT); format: cell-based
[7] = system: HIV-1 constructs containing mutant IN E138K-Q148K; assay: Single-round HIV-1 infectivity assay, IN double mutant E138K-Q148K; format: cell-based
Method: as §1, §2, §3
pNLNgoMIVR^−ΔEnv.LUC has been described previously (Zhao et al. 2008). The integrase codon reading frame was removed from pNLNgoMIVR^−ΔEnv LUC (between KpnI and SalI sites) and placed between the KpnI and SalI sites of pBluescript II KS+. Using that construct as the wild-type template, we prepared the following HIV-1 Integrase-resistant mutants via the QuikChange II XL (Stratagene, La Jolla, Calif.) site-directed mutagenesis protocol: H51Y, T66I, E92Q, G118R, Y143R, Q148H, Q148K, N155H, R263K, G140S+Q148H, G140A+Q148K, E138K+Q148K, and H51Y+R263K. […]

[8] = Human immunodeficiency virus 1, read-out: EC50 (nM), Table 9, 10% FBS
[9] = Human immunodeficiency virus 1, read-out: EC50 (nM), Table 9, 15% FBS

SMILES	CC50 ([1]; Table 8)	EC50 [2]	EC50 [3]	EC50 [4]	EC50 [5]	EC50 [6, 8]	EC50 [6, 9]	CC50 ([1]; Table 3)	CC50 ([1]; Table 6)	CC50 ([1]; Table 2)	Integrase Mutants KK (E138K-Q148K), fold-change in EC50 relative to WT [7]
Nc1c(C(=O)NCc2ccc(F)cc2F)c(=O)n(O)c2ncc(CCCCCO)cc12 [XZ419, 4-Amino-N-(2,4-difluorobenzyl)-1-hydroxy-6-(5-hydroxypentyl)-2-oxo-1,2-dihydro-1,8-naphthyridine-3-carboxamide]	> 250000 nM	0.93 nM	3.8 nM	3.8 nM	2.6 nM	0.93 ± 0.2 nM	2.1 ± 0.4 nM				
CC(=O)OCCCc1cnc2c(c1)c(N)c(C(=O)NCc1ccc(F)cc1F)c(=O)n2O [XZ424, 3-(5-Amino-6-((2,4-difluorobenzyl)carbamoyl)-8-hydroxy-7-oxo-7,8-dihydro-1,8-naphthyridin-3-yl)propyl acetate]	> 250000 nM	0.75 nM	1.2 nM	0.8 nM	3.9 nM						
Nc1c(C(=O)NCc2ccc(F)cc2F)c(=O)n(O)c2ncc(CCCCCCCCO)cc12 [XZ433, 4-Amino-N-(2,4-difluorobenzyl)-1-hydroxy-6-(8-hydroxyoctyl)-2-oxo-1,2-dihydro-1,8-naphthyridine-3-carboxamide]	> 250000 nM	1.7 nM	2.6 nM	4.8 nM	22.4 nM						
COC(=O)CNc1c(C(=O)NCc2ccc(F)cc2F)c(=O)n(O)c2ncccc12 [XZ379, Methyl 2-((3-((2,4-difluorobenzyl)carbamoyl)-1-hydroxy-2-oxo-1,2-dihydro-1,8-naphthyridin-4-yl)amino)acetate]						5 nM	1 nM	> 250000 nM	> 250000 nM		
O=C(NCc1ccc(F)cc1F)c1c(O)c2cccnc2n(O)c1=O [XZ351, N-(2,4-difluorobenzyl)-1,4-dihydroxy-2-oxo-1,2-dihydro-1,8-naphthyridine-3-carboxamide]								137000 ± 20100 nM	137000 ± 20100 nM	137000 nM	32 x
Nc1c(C(=O)NCc2ccc(F)cc2F)c(=O)n(O)c2ncc(CCCCCCO)cc12 [XZ426, 4-Amino-N-(2,4-difluorobenzyl)-1-hydroxy-6-(6-hydroxyhexyl)-2-oxo-1,2-dihydro-1,8-naphthyridine-3-carboxamide]	> 250000 nM	0.5 nM	0.74 nM	1.6 nM	5.2 nM	0.8 ± 0.2 nM					
COC(=O)CCc1cnc2c(c1)c(NCCO)c(C(=O)NCc1ccc(F)cc1F)c(=O)n2O [XZ438, Methyl 3-(6-((2,4-difluorobenzyl)carbamoyl)-8-hydroxy-5-((2-hydroxyethyl)amino)-7-oxo-7,8-dihydro-1,8-naphthyridin-3-yl)propanoate]	> 250000 nM	0.62 nM	2.7 nM	6.9 nM	2.5 nM						
CC(=O)OCCNc1c(C(=O)NCc2ccc(F)cc2F)c(=O)n(O)c2ncccc12 [XZ402, 2-((3-((2,4-difluorobenzyl)carbamoyl)-1-hydroxy-2-oxo-1,2-dihydro-1,8-naphthyridin-4-yl)amino)ethyl acetate]						2.2 ± 0.3 nM	1 nM	> 250000 nM	> 250000 nM		
Nc1c(C(=O)NCc2ccc(F)cc2F)c(=O)n(O)c2ncc(CCCO)cc12 [XZ423, 4-Amino-N-(2,4-difluorobenzyl)-1-hydroxy-6-(3-hydroxypropyl)-2-oxo-1,2-dihydro-1,8-naphthyridine-3-carboxamide]	> 250000 nM	1.1 nM	4.8 ± 2 nM	2.6 nM	14.7 nM						
COC(=O)CCc1cnc2c(c1)c(N)c(C(=O)NCc1ccc(F)cc1F)c(=O)n2O [XZ434, Methyl 3-(5-amino-6-((2,4-difluorobenzyl)carbamoyl)-8-hydroxy-7-oxo-7,8-dihydro-1,8-naphthyridin-3-yl)propanoate]	> 250000 nM	0.53 nM	2 ± 1.1 nM	0.63 nM	2.4 nM	0.62 ± 0.2 nM	0.6 nM				
C[C@@H]1CCO[C@H]2Cn3cc(C(=O)NCc4ccc(F)cc4F)c(=O)c(O)c3C(=O)N12 [DTG, dolutegravir, reference compound]	> 250000 nM	0.9 nM	2.3 nM	3.2 nM	16 nM						
O=C(NCc1ccc(F)cc1F)c1c(NCCO)c2cc(CCCCCO)cnc2n(O)c1=O [XZ437, N-(2,4-Difluorobenzyl)-1-hydroxy-4-((2-hydroxyethyl)amino)-6-(5-hydroxypentyl)-2-oxo-1,2-dihydro-1,8-naphthyridine-3-carboxamide]	> 250000 nM	1.9 nM	6.5 nM	10.8 nM	30.9 nM						
O=C(NCc1ccc(F)cc1F)c1c(O)c2c(CO)ccnc2n(O)c1=O [XZ440, N-(2,4-Difluorobenzyl)-1,4-dihydroxy-5-(hydroxymethyl)-2-oxo-1,2-dihydro-1,8-naphthyridine-3-carboxamide]	> 250000 nM	1.4 nM	4 ± 0.6 nM	5 nM	9 ± 0.6 nM						
